What follows are molecules tested against T1, Thrombopoietin receptor (Homo sapiens, UniProt P40238) (assay: Agonist activity at TPO receptor).
T1 sequence (P40238 whole entry): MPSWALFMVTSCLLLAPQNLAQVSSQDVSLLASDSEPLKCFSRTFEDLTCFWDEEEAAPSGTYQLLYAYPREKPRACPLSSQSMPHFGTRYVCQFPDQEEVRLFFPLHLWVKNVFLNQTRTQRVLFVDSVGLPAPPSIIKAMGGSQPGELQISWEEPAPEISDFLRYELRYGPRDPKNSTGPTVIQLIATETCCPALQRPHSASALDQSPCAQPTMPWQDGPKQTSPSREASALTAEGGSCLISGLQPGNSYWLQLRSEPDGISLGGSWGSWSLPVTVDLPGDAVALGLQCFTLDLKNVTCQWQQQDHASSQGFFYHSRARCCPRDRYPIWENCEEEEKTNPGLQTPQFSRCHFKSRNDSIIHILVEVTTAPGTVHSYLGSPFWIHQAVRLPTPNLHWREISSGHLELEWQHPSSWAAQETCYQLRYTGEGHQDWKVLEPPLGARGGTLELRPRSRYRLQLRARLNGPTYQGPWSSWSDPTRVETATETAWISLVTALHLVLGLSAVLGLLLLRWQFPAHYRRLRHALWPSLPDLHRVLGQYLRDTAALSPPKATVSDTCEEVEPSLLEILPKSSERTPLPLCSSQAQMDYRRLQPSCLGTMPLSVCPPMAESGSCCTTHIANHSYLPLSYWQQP
Type: functional

| EC50 | SMILES |
| --- | --- |
| 5200 nM | Nc1nc(-c2cc(C(F)(F)F)ccc2F)cs1 |
| 57 nM | Nc1nc(-c2cccc(C(F)(F)F)c2F)cs1 |
| 530 nM | O=C(Nc1nc2c(s1)COc1c(Cl)cccc1-2)c1ccc(Nc2ccncn2)cc1 |
| 100 nM | Nc1nc(-c2ccc(F)c(C(F)(F)F)c2)cs1 |
| 180 nM | Cc1sc(N)nc1-c1ccc(F)c(C(F)(F)F)c1 |
| 89 nM | Nc1nc(-c2ccc(F)c(C(F)(F)F)c2)c(F)s1 |
| 32 nM | Nc1nc(-c2cccc(OC(F)(F)F)c2F)cs1 |
| 540 nM | Cc1sc(N)nc1-c1cccc(C(F)(F)F)c1F |
| > 10000 nM | Nc1nc(-c2c(F)cccc2F)cs1 |
| 1500 nM | O=C(Nc1nc2c(s1)COc1c(F)cccc1-2)c1ccc(Nc2ccncn2)cc1 |
| 700 nM | Nc1nc(-c2cccc(C(F)(F)F)c2F)c(F)s1 |
| 6800 nM | Nc1nc(-c2ccccc2F)cs1 |
| 260 nM | Nc1nc(-c2ccc(C(F)(F)F)cc2F)cs1 |
| 520 nM | O=C(Nc1nc2c(s1)COc1ccccc1-2)c1ccc(Nc2ccncn2)cc1 |

These molecules were tested against T2, Thrombopoietin receptor (Homo sapiens) (UniProt P40238) (assay: Agonist activity at TPO receptor at 10 uM).
T2 sequence (whole entry): T1 sequence (P40238 whole entry)
Type: functional

| Activity | SMILES |
| --- | --- |
| 58% | O=C(Nc1nc(-c2ccccc2F)cs1)c1ccc(Nc2ccncn2)cc1 |
| 0% | Nc1nc(-c2c(F)cccc2F)cs1 |
| 0% | O=C(Nc1nc(-c2c(F)cccc2F)cs1)c1ccc(Nc2ccncn2)cc1 |
| 38% | O=C(Nc1nc(-c2ccccc2C(F)(F)F)cs1)c1ccc(Nc2ccncn2)cc1 |
| 45% | O=C(Nc1nc(-c2cccc(F)c2)cs1)c1ccc(Nc2ccncn2)cc1 |
